Measured values: patent EP1210350B1, “WATER SOLUBLE SDZ-RAD ESTERS” (Wyeth, priority 1999, dated 2001)
Converted amounts (≈) assume the structure as drawn. Like-named read-outs stand apart in the source and are kept apart here.

System: U87MG Human Glioblastoma (ATCC # HTB-14)
Assay: 3H thymidine incorporation in U87MG human glioblastoma cells
Type: cell-based
Details: 48 hours incubation with compound, 3H thymidine for the last 5 hours
Method: U87MG Human Glioblastoma (ATCC # HTB-14)
3H Thymidine Incorporation Protocol
• Growth Medium: BRL Minimum Essential Medium with Earle Salts (500 ml) + 5mLBRL MEM Non-Essential Amino Acids (10mM) +5 mLBRL Penicillin-Streptomycin (10000u/ml,10000ug/ml) +5mLBRL Na Pyruvate Solution (100mM) +5mLBRL L-Glutamine 200mM +50mLBRL Fetal Bovine Serum (Qualified) • Assay: • 1. Cells were trypsinized and plated at a concentration of 10^4 cells/well in a final volume of 200 µl growth medium in 96-well flat bottom plates and allowed to adhere for 24 hours at 37°C. • 2. The media was removed by aspiration with care to not disturb the cell monolayer. 200 µl of fresh growth media was added per well, allowing enough wells for samples to be run in triplicate. Compounds were added in 10 µl PBS solutions and incubated for another 48 hours at 37°C. • 3. During the last 5 hours of incubation, plates were labeled with 1µCi 3H thymidine per well. (NEN thymidine, catalog # NET-027, 6.7 Ci/mmole). The 1µCi was added in 10 µl of PBS (on the day of harvest.). The plates were returned to the incubator for the last 5 hours. • 4. The radioactive media was removed by aspiration, with care not to disturb the cell monolayer. 50 µl of BRL 10X Trypsin was added to each well, followed by incubation at 37°C for 10 minutes or until the monolayer was loosened from the well bottom. […] Mats were counted in a Wallac Betaplate counter.

Compound `CO[C@H]1C[C@@H]2CC[C@@H](C)[C@@](O)(O2)C(=O)C(=O)N2CCCC[C@H]2C(=O)O[C@H]([C@H](C)C[C@@H]2CC[C@@H](O)[C@H](OC)C2)CC(=O)[C@H](C)/C=C(\C)[C@@H](O)[C@@H](OC)C(=O)[C@H](C)C[C@H](C)/C=C/C=C/C=C/1C` [Rapamycin] has an IC50 (Homo sapiens, U-87 MG, read-out: IC50) of 0.5 ng/mL (≈ 0.547 nM).
Compound `CO[C@H]1C[C@@H]2CC[C@@H](C)[C@@](O)(O2)C(=O)C(=O)N2CCCC[C@H]2C(=O)O[C@H]([C@H](C)C[C@@H]2CC[C@@H](OCCO)[C@H](OC)C2)CC(=O)[C@H](C)/C=C(\C)[C@@H](O)[C@@H](OC)C(=O)[C@H](C)C[C@H](C)/C=C/C=C/C=C/1C` [SDZ-RAD, 40-O-(2-hydroxy)ethyl-rapamycin] has an IC50 of 2.0 ng/mL (≈ 2.09 nM).
